# According to PMC4999912, “Anti-Dengue Virus Constituents from Formosan Zoanthid Palythoa mutuki” (Marine Drugs, 2016):
# Columns and labels:
# DENV [1] = test system: DENV; set-up: method as in PMID 22201648; settings: cited from earlier work
# DENV-2 = test: Anti-DENV activity assay, DENV RNA level by qRT-PCR in infected Huh-7 cells; format: cell-based, dengue virus 2; settings: for EC50: DENV2, Huh-7 cells, MOI 0.2, treatment 2 h post infection, RNA at 72 h, read-out: EC50, half maximal effective concentration, anti-DENV-2 activity
# Protocol: (§1) Huh-7 cells were cultured in Dulbecco’s modified Eagle’s medium (DMEM) containing 10% fetal bovine serum, 1% non-essential amino acids, and 1% antibiotic-antimycotic in a 5% CO2 at 37 °C. Huh-7 cells were seeded at 24-well plate at density 5 × 10^4 cells/well and infected by DENV infection at a multiplicity of infection (MOI) of 0.2 followed by test compounds treatment 2 h post infection. Total cellular RNA were harvested at 72 h post-infection, and DENV RNA level was analyzed using quantitative real-time reverse-transcription polymerase chain reaction (qRT-PCR) with specific primers against DENV NS5 gene. DENV RNA level was normalized by cellular glyceraldehydes-3-phosphate dehydrogenase (gapdh) mRNA level. 2′-C-methylcytidine (2′CMC) served as positive control. DENV of different serotypes (DENV-1: DN8700828; DENV-2: DN454009A; DENV-3: DN8700829A; DENV-4: S9201818) were obtained from the Centers for Disease Control, Department of Health, Taipei, Taiwan.
# Cytotoxicity assay (MTS) = format: cell-based; settings: human, Huh-7 cells, read-out: CC50, half maximal cytotoxicity concentration
# Protocol: Huh-7 cells were seeded onto 96-well plate at a density of 5 × 10^3 cells per well, followed by compound treatment for 72 h. The cell viability was determined using a standard MTS assay (CellTiter 96® Aqueous One Solution Cell Proliferation assay system, Promega, Madison, WI, USA) according to the manufacturer’s instructions.
# DENV-1 = test: Anti-DENV activity assay, DENV RNA level by qRT-PCR in infected Huh-7 cells; format: cell-based; settings: Dengue virus, DENV1, MOI 0.2, 72 h
# Protocol: as §1
# DENV-3 = test: as above; format: cell-based; settings: Dengue virus, DENV3, MOI 0.2, 72 h
# Protocol: as §1
# DENV-4 = test: as above; format: cell-based; settings: Dengue virus, DENV4, MOI 0.2, 72 h
# Protocol: as §1
# DENV [2] = format: cell-based, dengue virus; settings: 10 μM, TCID50 assay
# DENV NS2B/NS3 protease = DENV NS2B/NS3 protease (Dengue virus type 2, UniProt P29990); test: cell-based
# Source text: The DENV RdRp activity reporter system was used to determine the anti-DENV RdRp activity as described before. The NS3 protease reporter-based assay was used to determine the anti-DENV protease activity. The Huh-7 cells were transfected with DENV NS2B/NS3 protease reporter vector pEG(∆4B/5)NLuc carrying a specific DENV protease cleavage peptide sequences and the DENV protease expression vector. […] The supernatant was collected to analyze the nano luciferase (NLuc) activity by Nano-Glo® Luciferase Assay System following the manufacturer’s instructions (Promega, Madison, WI, USA).
# Sequence of DENV NS2B/NS3 protease (P29990 1476-2093): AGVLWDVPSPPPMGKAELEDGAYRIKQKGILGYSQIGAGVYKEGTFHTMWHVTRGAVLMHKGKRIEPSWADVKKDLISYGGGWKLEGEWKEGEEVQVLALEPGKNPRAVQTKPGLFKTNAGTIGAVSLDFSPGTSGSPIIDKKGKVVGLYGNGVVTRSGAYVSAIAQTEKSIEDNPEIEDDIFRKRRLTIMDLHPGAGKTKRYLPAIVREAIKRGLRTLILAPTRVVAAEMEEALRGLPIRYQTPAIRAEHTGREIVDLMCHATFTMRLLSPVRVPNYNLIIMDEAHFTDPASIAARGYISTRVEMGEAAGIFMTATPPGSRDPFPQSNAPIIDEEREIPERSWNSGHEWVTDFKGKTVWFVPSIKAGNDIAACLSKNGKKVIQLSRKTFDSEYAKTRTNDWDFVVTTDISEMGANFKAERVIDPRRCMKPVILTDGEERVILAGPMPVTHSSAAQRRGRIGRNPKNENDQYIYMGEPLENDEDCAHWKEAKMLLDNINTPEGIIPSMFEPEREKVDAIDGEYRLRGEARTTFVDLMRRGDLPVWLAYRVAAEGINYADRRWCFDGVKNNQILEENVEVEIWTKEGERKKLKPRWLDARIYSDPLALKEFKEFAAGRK
# Sequence of DENV NS2B/NS3 protease (P29990 1346-1475): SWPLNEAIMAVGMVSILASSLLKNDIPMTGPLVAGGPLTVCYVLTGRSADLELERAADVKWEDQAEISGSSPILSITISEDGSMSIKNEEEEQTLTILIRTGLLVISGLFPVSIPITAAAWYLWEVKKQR
SMILES,EC50 (DENV-2; Dengue virus) [µM],CC50 at 72 h (Cytotoxicity assay (MTS)) [µM],further results
O=c1c(O)c(-c2ccc(O)c(O)c2)oc2cc(O)cc(O)c12 [quercetin],,,"IC50, anti-DENV activity (DENV [1]): 35.7 µg/mL"
"CC(=O)O[C@H]1C[C@@]2(C)[C@@H](C[C@H]1O)C(=O)C=C1[C@@H]2CC[C@]2(C)[C@@H]([C@@](C)(O)[C@H](O)CCC(C)(C)O)CC[C@@]12O [Compound 2, 20-hydroxyecdysone 2-acetate]",> 100,> 200,
"CC(C)(O)CC[C@@H](O)[C@](C)(O)[C@H]1CC[C@@]2(O)C3=CC(=O)[C@@H]4CC[C@@H](O)C[C@]4(C)[C@H]3CC[C@]12C [Compound 3, 3-deoxy-20-hydroxyecdysone]",> 100,> 200,
"CC(=O)OC1CC(C)(C)C(=C=CC(C)=CC=CC=CC=C(C)C=C2C=C(C=CC34OC3(C)CC(O)CC4(C)C)C(=O)O2)C(C)(O)C1 (centres unmarked) [Compound 9, peridinin]",4.5 ± 0.46,133 ± 3.21,"IC50 (DENV-2; Dengue virus, DENV2, Huh-7, read-out: IC50, antiviral activity (abstract)): 4.5 ± 0.46 µg/mL; EC50 (DENV-1): 7.62 ± 0.17 µM; EC50 (DENV-3): 5.84 ± 0.19 µM; EC50 (DENV-4): 6.51 ± 0.3 µM; decrease of the viral titer as compared to mock-treatment (DENV [2]): 2 ± 0.6 log10; EC50 (DENV NS2B/NS3 protease): 8.5 ± 0.41 µM"
"CC(C)(O)CCC(O)C(C)(O)C1CCC2(O)C3=CC(=O)C4C(O)CCCC4(C)C3CCC12C (centres unmarked) [Compound 1, palythone A]",54 ± 2.17,,anti-DENV-2 activity in words (DENV-2): weak anti-DENV-2 activities
"C[C@@H](C[C@@H](O)[C@](C)(O)[C@H]1CC[C@@]2(O)C3=CC(=O)[C@@H]4C[C@@H](O)[C@@H](O)C[C@]4(C)[C@H]3CC[C@]12C)C(C)(C)O [Compound 4, 24-epi-makisterone A]",46.5 ± 0.59,,anti-DENV-2 activity in words (DENV-2): weak anti-DENV-2 activities
"C[C@@]1(O)[C@H](O)[C@@H](CO)O[C@H]1n1ccc(N)nc1=O [2′CMC, 2′-C-methylcytidine, reference compound]",13.23 ± 0.07,94.8 ± 4.15,"SI, selectivity index, CC50/EC50 (DENV-2; CC50 (Huh-7) / EC50 (DENV-2)): >7.2"
